Data published in ChEMBL document CHEMBL1201862, “PubChem BioAssay data set” (2004).
Active and inactive are the calls of the source.

Tests used:
[1] = molecular target: T1, Short transient receptor potential channel 4 (Mus musculus, UniProt Q9QUQ5); assay: mouse TRPC4 channel inhibitors, dose response, cell-based, HEK293 TRPC4/mu-opioid, Fluo-4 calcium (AID 434942); type: functional;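 further: potency of inhibitors blocking the TRPC4 calcium response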
T1 sequence (Q9QUQ5 whole entry): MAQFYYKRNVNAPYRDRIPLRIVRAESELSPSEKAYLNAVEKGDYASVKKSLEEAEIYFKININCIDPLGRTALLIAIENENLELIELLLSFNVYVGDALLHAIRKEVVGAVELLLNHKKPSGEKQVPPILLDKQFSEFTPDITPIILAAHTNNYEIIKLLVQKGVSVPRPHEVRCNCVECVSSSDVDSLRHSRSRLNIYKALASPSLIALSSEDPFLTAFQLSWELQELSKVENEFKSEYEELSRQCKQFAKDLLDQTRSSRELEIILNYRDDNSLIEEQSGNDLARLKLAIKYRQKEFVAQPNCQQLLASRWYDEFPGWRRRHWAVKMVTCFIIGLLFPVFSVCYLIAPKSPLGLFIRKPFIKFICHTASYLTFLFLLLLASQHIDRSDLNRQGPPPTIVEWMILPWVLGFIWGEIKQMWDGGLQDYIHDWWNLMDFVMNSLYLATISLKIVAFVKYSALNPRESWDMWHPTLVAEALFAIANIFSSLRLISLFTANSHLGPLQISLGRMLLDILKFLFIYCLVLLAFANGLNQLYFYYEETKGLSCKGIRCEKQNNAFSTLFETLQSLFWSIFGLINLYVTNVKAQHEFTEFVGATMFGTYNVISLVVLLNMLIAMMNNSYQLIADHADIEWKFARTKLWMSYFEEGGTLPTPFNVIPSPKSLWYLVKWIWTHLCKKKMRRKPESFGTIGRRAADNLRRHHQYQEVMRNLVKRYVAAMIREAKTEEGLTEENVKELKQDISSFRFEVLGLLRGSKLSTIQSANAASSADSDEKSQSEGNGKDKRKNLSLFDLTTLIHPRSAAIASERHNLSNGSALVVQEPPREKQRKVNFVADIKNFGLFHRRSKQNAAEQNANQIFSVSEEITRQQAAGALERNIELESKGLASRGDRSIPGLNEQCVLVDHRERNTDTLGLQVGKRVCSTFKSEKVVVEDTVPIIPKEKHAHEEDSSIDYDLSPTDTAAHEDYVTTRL

Hexokinase = molecular target: T2, Hexokinase (Trypanosoma brucei, UniProt Q38C41); assay: Confirmation assay for inhibitors of Trypanosoma brucei hexokinase 1-Analogue-first series. [Related pubchem assays (depositor defined):AID1430, AID1632, AID2516, AID2560, AID2579, AID2600, AID449725, AID492951]; type: functional
T2 sequence (Q38C41 whole entry): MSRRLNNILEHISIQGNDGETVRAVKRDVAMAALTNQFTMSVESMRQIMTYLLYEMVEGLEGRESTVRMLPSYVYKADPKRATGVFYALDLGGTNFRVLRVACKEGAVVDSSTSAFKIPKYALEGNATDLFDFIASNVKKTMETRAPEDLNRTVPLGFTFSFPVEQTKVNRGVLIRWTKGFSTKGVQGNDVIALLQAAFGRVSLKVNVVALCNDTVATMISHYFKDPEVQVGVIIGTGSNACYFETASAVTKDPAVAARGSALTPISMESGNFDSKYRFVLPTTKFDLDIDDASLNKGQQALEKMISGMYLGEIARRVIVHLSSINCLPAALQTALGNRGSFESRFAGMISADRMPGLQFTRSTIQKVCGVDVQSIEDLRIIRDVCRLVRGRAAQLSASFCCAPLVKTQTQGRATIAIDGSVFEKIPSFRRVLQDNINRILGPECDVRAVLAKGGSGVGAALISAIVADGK

[2] = molecular target: DNA dC->dU-editing enzyme APOBEC-3A (Homo sapiens, UniProt P31941); assay: Dose Response confirmation of small molecule APOBEC3A DNA Deaminase Inhibitors via a fluorescence-based single-stranded DNA deaminase assay. [Related pubchem assays (depositor defined):AID493011, AID493024]; type: functional
[3] = molecular target: DNA dC->dU-editing enzyme APOBEC-3G (Homo sapiens, UniProt Q9HC16); type: functional;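 further: Dose-response counterscreen measuring inhibition of APOBEC3G DNA deaminase activity, run while confirming APOBEC3A inhibitors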
Nonstructural protein 1 = Nonstructural protein 1 (Influenza A virus, UniProt Q194T2); type: functional, Influenza A virus (A/California/07/2009(H1N1))
cells = type: functional
[4] = Vero E6 cell cytotoxicity, dose response, cytotoxicity control for non-replicating M. tuberculosis project, secondary assay (AID 492998); type: functional, VeroE6; details: Vero C1008
[5] = molecular target: T1, Short transient receptor potential channel 4; assay: mouse TRPC4 channel activators, dose response, cell-based, HEK293 TRPC4/mu-opioid, Fluo-4 calcium (AID 434937); type: functional
Coagulation factor XII = molecular target: T3, Coagulation factor XII (Homo sapiens, UniProt P00748); type: functional;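 further: activated factor XIIa alpha cleaving a fluorogenic AMC peptide substrate; inhibitor potency from loss of enzyme activity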
T3 sequence (P00748 whole entry): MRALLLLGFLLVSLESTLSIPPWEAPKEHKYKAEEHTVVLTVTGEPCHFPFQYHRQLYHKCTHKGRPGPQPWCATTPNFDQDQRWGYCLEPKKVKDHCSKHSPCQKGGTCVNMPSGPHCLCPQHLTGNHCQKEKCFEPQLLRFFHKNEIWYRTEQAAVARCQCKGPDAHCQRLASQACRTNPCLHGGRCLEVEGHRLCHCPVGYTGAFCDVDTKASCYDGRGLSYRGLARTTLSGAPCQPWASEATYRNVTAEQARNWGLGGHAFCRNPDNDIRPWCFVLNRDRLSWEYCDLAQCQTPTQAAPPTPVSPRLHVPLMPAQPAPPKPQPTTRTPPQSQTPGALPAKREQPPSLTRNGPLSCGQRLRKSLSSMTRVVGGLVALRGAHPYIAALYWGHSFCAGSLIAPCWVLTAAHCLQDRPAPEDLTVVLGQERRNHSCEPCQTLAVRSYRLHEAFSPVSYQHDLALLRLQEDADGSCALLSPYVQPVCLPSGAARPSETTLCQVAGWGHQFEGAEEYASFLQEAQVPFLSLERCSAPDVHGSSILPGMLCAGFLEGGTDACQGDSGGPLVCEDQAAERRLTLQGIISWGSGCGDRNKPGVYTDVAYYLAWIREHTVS

[6] = molecular target: T4, Replicative DNA helicase DnaB (Mycobacterium tuberculosis, UniProt P9WMR3); assay: DnaB intein splicing inhibitors, dose response, biochemical, cell-free fluorescence (AID 449749); type: functional
T4 sequence (P9WMR3 whole entry): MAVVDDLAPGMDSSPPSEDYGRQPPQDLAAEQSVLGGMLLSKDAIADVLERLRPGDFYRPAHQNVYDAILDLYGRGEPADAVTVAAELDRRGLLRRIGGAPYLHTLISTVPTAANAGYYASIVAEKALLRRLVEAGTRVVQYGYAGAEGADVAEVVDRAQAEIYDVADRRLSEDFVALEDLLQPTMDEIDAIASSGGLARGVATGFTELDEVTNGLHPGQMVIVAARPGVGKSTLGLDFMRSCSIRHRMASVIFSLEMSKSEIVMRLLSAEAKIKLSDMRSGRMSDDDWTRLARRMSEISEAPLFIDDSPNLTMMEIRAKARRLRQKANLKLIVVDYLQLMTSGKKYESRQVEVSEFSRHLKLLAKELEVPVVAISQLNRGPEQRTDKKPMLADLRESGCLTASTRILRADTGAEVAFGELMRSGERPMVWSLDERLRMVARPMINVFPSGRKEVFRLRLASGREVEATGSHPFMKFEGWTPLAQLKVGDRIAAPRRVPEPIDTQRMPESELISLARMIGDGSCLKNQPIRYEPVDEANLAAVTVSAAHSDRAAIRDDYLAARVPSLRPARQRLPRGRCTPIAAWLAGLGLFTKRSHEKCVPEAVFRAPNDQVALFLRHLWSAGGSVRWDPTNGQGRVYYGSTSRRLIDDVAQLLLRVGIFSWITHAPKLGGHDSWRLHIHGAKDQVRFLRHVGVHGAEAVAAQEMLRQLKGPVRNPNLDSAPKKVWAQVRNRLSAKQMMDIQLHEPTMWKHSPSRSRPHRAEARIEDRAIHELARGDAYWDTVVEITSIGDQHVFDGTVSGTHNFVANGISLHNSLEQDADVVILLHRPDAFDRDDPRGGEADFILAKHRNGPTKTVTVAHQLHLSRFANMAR

Protein RecA = molecular target: T5, Protein RecA (Mycobacterium tuberculosis, UniProt P9WHJ3); assay: Fluorescence Cell-Free Homogeneous Dose Retest to Identify Inhibitors of RecA-Intein Splicing Activity. [Related pubchem assays (depositor defined):AID2097, AID2223, AID489010, AID492950]; type: functional
T5 sequence (P9WHJ3 whole entry): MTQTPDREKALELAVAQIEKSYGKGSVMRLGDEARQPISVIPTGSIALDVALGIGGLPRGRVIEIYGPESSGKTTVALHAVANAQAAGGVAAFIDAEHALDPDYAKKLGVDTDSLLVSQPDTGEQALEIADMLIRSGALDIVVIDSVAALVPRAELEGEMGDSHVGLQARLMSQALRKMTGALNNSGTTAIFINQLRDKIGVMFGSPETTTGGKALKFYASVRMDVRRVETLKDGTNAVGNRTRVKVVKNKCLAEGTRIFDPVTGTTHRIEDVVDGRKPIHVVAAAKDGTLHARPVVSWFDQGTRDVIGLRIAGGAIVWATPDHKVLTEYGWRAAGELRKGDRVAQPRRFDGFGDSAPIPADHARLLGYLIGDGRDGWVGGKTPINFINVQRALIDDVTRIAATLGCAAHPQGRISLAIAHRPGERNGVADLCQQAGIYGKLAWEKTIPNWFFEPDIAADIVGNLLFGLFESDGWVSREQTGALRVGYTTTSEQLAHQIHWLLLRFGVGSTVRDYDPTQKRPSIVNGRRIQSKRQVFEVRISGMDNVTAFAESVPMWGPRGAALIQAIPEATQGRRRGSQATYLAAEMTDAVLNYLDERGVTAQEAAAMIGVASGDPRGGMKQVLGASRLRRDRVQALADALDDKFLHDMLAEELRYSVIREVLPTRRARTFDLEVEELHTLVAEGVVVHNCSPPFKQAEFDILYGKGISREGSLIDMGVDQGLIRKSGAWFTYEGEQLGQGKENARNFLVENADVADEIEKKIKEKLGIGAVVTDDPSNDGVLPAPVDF

[7] = molecular target: Induced myeloid leukemia cell differentiation protein Mcl-1 (Homo sapiens, UniProt Q07820); type: functional
[8] = growth suppression of PTEN-null colon cells, dose response, cell-based, HCT116 PTEN knockout (AID 1047); type: functional;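 further: HCT116 colon tumor cells with PTEN knocked out; cells exposed to compound for 60 hours before readout; potency for loss of cell viability measured by luminescence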
[9] = growth suppression of beta-catenin-knockout colon cells, dose response, cell-based, HCT116, human colon tumor (AID 1045); type: functional;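 further: HCT116 colon tumor cells with beta catenin knocked out; cells exposed to compound for 60 hours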
[10] = molecular target: T6, Ubiquitin-conjugating enzyme E2 N (Homo sapiens, UniProt P61088); type: functional;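 further: Dose-response confirmation in a TR-FRET assay detecting UBC13-driven polyubiquitin chain formation, inhibition measured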
T6 sequence (P61088 whole entry): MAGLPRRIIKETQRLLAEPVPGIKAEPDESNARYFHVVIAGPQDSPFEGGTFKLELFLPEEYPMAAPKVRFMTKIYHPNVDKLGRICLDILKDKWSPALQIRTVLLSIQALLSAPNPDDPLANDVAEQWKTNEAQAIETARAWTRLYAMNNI

[11] = HEp-2 cell cytotoxicity, dose response, cytotoxicity control for RSV inhibitor project, HTS (AID 2410); type: functional; details: human respiratory syncytial virus

Chain of Nonstructural protein 1 (Q194T2 whole entry): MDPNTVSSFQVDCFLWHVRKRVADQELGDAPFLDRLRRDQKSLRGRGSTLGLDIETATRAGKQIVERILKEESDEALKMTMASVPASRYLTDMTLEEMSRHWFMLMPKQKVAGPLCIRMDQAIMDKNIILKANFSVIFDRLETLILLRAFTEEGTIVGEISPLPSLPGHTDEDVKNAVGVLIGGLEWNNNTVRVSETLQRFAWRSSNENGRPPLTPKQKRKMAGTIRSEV
Chain of DNA dC->dU-editing enzyme APOBEC-3A (P31941 whole entry): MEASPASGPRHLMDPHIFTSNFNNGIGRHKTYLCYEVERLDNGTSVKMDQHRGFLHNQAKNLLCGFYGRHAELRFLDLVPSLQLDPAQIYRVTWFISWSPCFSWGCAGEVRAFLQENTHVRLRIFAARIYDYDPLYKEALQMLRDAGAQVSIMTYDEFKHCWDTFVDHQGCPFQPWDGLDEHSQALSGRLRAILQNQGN
Chain of DNA dC->dU-editing enzyme APOBEC-3G (Q9HC16 whole entry): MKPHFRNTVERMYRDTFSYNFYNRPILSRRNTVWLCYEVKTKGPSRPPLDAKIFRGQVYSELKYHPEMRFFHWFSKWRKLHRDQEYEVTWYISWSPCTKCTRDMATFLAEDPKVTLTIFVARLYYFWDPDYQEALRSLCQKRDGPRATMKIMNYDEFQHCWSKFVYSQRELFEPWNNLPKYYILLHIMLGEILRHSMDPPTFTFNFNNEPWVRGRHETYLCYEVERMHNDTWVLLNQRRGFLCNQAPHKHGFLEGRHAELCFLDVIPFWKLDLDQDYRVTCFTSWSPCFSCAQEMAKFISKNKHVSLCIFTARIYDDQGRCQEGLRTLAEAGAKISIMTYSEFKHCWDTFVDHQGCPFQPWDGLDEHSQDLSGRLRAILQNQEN
Chain of Induced myeloid leukemia cell differentiation protein Mcl-1 (Q07820 whole entry): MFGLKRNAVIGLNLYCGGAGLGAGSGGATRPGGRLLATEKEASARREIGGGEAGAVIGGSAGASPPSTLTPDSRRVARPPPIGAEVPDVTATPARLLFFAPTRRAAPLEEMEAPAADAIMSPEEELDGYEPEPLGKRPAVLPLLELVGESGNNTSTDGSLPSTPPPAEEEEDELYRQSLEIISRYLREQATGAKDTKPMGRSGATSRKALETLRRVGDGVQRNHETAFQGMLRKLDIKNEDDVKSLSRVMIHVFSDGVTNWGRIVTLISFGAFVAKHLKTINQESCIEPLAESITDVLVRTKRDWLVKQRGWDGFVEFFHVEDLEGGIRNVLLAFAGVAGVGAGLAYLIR

## O=C(c1cccc(C(=O)N2CCN(c3ccccc3)CC2)c1)N1CCN(c2ccccc2)CC1
[1]
  EC50: 1.06 µM (active)

## O=C(Nc1cc(Cl)ccc1C(=O)O)c1ccc(Cc2ccccc2)cc1
Hexokinase
  IC50: 13.6 µM (active)

## CC1CCCC(C2(O)C(=O)Nc3ccccc32)C1=O (stereo unspecified)
[2]
  IC50: 5.46 µM (active)
[3]
  IC50: 5.64 µM (active)

## COc1ccc(C(=O)Nc2cc(-c3ccccc3)ccc2C(=O)O)cc1
Hexokinase
  IC50: > 25 µM (inactive)

## CN(C)c1ccc(NC(=O)CC(NCc2ccccn2)C(=O)O)cc1 (stereo unspecified)
Nonstructural protein 1
  IC50: 1.51 µM (active)

## O=C(NC(=S)N1CCN(Cc2ccc3c(c2)OCO3)CC1)c1ccc(Cl)cc1
cells
  IC50: 18.1 µM (active)
[4]
  CC50: 19.2 µM (active)

## CCCCc1nc(CN2CCCC(C(=O)c3ccc(SC)cc3)C2)c[nH]1 (stereo unspecified)
[1]
  EC50: 1.88 µM (active)

## CCN1C(NCCOC)=N[C@@H](c2cccc(C(F)(F)F)c2)C(C(=O)OC)=C1C
[2]
  IC50: 2.09 µM (active)
[3]
  IC50: 1.95 µM (active)

## CN(C)CCN(C(=O)C1CCCCC1)c1nc2cc3c(cc2s1)OCO3
[5]
  EC50: 6.68 µM (active)
[1]
  EC50: 2.66 µM (active)

## Cc1ccc(C(=O)C(=O)c2ccc(C)c(N)c2)cc1N
Coagulation factor XII
  IC50: 15.7 µM (active)

## Cc1ccc(S(=O)(=O)Nc2cccc(C(=O)NCC(c3ccco3)N3CCCC3)c2)cc1F (stereo unspecified)
[5]
  EC50: 1.5 µM (active)
[1]
  EC50: 0.149 µM (active)

## COc1ccc(/C=C2/SC(=S)N(n3c(C)ccc3C)C2=O)cc1
Coagulation factor XII
  IC50: > 50 µM (inactive)

## Cc1ccc(C)c(NC(=O)CSc2n[nH]c(-c3ccccn3)n2)c1
[6]
  AC50: 163 µM (active)
Protein RecA
  EC50: > 380 µM (inactive)
Nonstructural protein 1
  IC50: 5.46 µM (active)

## Nc1n[nH]c(SCn2nnc3ccccc3c2=O)n1
Coagulation factor XII
  IC50: > 50 µM (inactive)

## c1cncc(C2Nc3cccc4cccc(c34)N2)c1
[7]
  IC50: 9.59 µM (active)
Nonstructural protein 1
  IC50: > 100 µM (active)

## NNC(=O)c1ccc(CSc2nc3ccccc3s2)cc1
Coagulation factor XII
  IC50: > 50 µM (inactive)

## COc1ccc(NC(=O)c2ccccc2C(=O)O)cc1
Hexokinase
  IC50: > 25 µM (inactive)

## COc1ccc(C(=O)Nc2cc(Cl)ccc2O)cc1
Hexokinase
  IC50: 25 µM (inactive)

## CCCCCCCSc1cc(OC)c(CCN(C)C)cc1OC
[8]
  EC50: 9.16 µM (active)
[9]
  EC50: 7.83 µM (active)
[10]
  IC50: > 20 µM (inactive)
[11]
  CC50: 21.3 µM (active)
Nonstructural protein 1
  IC50: 44.4 µM (active)
